This is an account of results in ChEMBL document CHEMBL1201862, “PubChem BioAssay data set” (2004).

Assay [1] can be described thus: A Cell Based Secondary Assay To Explore Cytotoxicity of Compounds that Sensitize Mycobacterium Tuberculosis to Beta-Lactam Antibiotics. The assay is classed as functional.
Assay [2] concerns the target Beta-galactosidase (Escherichia coli, UniProt Q8VNN2). As to the kind of experiment: PubChem AID 485352. The assay is classed as functional.
For assay [3], the target named is T1, Type-1 angiotensin II receptor (Homo sapiens, UniProt P30556).
T1 sequence (P30556 whole entry): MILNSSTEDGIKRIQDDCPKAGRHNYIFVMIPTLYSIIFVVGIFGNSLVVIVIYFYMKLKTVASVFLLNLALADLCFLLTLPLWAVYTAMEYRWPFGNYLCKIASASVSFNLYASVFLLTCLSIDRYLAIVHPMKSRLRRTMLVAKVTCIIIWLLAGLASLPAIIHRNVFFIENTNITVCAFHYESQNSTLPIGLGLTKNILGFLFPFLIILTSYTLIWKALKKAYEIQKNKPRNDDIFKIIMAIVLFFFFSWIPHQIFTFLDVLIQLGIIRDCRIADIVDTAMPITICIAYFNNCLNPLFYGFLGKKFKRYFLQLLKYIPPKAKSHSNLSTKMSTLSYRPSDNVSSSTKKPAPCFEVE
Kind of assay: AT1 receptor antagonists, dose response, selectivity assay for APJ receptor antagonist project, cell-based, uHTS hits (AID 463214).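 Also: antagonist potency against angiotensin II stimulated AT1 response.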 The class given is functional.

Assay [4] in a line: Luminescence Cell-Based Dose Retest to Confirm Inhibitors of Cancer Stem Cells. [Related pubchem assays (depositor defined):AID2717, AID2721]. The class given is functional, Homo sapiens. As to conditions: Homo sapiens.
Assay [5] addresses T2, Ubiquitin-conjugating enzyme E2 N (Homo sapiens, UniProt P61088).
T2 sequence (P61088 whole entry): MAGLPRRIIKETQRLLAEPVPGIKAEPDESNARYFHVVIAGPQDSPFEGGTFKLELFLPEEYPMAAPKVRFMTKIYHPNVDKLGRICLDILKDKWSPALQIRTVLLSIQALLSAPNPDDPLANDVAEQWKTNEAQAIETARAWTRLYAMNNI
The assay is classed as functional.

The target in assay [6] is Luciferin 4-monooxygenase (Photinus pyralis, UniProt P08659). As to the kind of experiment: firefly luciferase enzyme inhibitors, dose response, biochemical, luminescence (AID 1891).
The target in assay [7] is Cyclin-dependent kinase 5/CDK5 activator 1 (Homo sapiens, UniProt Q00535). Kind of assay: CDK5/p35 kinase inhibitors, dose response, biochemical, cherry-picked samples, set 2 (AID 504545).
Assay [8] concerns the target NS3 (Hepatitis C virus, UniProt A3EZJ3). Kind of assay: PubChem AID 2173. Further details: species or system Hepacivirus hominis.
Assay [9] has as its target T3, Short transient receptor potential channel 4 (Mus musculus, UniProt Q9QUQ5).
T3 sequence (Q9QUQ5 whole entry): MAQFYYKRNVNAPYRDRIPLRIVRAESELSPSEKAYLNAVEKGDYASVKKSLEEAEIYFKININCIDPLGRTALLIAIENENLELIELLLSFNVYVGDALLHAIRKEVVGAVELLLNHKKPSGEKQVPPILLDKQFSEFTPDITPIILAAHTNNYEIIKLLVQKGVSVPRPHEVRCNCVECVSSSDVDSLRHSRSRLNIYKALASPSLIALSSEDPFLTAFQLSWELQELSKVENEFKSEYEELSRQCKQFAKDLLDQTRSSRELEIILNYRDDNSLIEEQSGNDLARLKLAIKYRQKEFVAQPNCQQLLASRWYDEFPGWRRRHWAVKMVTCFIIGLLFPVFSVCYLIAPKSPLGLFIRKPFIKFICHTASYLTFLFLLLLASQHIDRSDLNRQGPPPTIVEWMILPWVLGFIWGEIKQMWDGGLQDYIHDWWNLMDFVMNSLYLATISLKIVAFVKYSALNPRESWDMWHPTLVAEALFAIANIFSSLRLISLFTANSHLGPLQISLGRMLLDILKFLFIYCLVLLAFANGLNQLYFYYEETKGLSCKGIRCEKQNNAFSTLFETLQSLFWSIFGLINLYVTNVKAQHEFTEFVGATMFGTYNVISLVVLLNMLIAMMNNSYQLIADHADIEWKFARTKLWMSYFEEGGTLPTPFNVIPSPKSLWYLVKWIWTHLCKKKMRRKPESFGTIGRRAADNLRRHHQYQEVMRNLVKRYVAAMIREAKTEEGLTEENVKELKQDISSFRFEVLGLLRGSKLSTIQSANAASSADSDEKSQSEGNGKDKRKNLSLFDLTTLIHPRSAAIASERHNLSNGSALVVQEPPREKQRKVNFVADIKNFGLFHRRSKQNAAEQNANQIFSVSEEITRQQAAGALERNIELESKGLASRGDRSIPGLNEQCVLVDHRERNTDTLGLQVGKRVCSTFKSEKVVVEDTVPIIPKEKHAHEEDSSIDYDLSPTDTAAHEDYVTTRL
As to the kind of experiment: mouse TRPC4 channel inhibitors, dose response, cell-based, HEK293 TRPC4/mu-opioid, Fluo-4 calcium (AID 434942).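 Also: potency of inhibitors blocking the TRPC4 calcium response.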 The assay is classed as functional.

Assay [10] deals with T4, Histone-lysine N-methyltransferase NSD2 (Homo sapiens, UniProt O96028).
T4 sequence (O96028 whole entry): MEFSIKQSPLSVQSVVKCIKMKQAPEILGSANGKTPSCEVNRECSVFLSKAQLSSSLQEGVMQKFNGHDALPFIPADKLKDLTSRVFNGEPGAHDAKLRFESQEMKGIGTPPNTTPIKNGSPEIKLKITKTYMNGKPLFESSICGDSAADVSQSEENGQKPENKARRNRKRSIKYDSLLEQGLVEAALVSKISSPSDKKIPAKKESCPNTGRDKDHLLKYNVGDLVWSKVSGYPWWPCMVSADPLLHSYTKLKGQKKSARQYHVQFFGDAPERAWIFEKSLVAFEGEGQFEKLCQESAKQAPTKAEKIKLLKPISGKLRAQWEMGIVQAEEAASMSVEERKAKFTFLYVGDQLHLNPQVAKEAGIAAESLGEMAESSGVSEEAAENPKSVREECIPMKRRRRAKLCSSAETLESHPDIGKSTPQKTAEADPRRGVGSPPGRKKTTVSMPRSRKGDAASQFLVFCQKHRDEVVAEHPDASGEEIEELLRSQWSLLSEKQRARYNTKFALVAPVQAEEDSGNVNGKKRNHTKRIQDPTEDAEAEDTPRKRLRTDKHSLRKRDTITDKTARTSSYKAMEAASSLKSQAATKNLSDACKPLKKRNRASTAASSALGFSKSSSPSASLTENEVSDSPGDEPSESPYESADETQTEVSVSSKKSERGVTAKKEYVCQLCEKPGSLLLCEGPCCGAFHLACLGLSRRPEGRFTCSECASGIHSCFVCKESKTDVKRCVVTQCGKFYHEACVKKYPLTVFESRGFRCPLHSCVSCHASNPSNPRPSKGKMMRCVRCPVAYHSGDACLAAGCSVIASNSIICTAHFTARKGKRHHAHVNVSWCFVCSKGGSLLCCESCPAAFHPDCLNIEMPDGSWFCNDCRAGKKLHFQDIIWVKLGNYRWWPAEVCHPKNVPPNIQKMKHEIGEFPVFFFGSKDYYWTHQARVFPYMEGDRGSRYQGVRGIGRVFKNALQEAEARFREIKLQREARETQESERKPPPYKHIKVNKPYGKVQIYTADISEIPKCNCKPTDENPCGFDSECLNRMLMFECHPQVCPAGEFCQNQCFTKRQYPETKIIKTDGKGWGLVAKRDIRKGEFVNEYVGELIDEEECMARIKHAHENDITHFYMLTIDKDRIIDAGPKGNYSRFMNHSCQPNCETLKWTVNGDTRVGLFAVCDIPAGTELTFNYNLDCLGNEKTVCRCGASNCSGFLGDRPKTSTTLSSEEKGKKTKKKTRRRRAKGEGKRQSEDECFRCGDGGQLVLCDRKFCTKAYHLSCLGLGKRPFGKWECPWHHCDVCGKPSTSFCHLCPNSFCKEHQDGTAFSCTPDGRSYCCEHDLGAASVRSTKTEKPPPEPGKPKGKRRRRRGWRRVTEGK
The class given is biochemical.

Assay [11] has as its target Neurotensin receptor type 1 (Homo sapiens, UniProt P30989). The class given is functional.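 Also: Image-based confirmatory dose-response assay measuring agonist activity at NTR1; NTR1-expressing U2OS osteosarcoma cells imaged for beta-arrestin GFP spot formation; agonist potency where compounds increase beta-arrestin recruitment.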
Assay [12] concerns the target Nonstructural protein 1 (Influenza A virus, UniProt Q194T2). The assay is classed as functional, Influenza A virus (A/California/07/2009(H1N1)).
Assay [13] has as its system Vero. As to the kind of experiment: Vero cell cytotoxicity, cytotoxicity control for flavivirus capping enzyme inhibitors (AID 588742). The note with it: Chlorocebus sabaeus. The class given is functional.
For assay [14], the system named is Vero. As to the kind of experiment: cells. The assay is classed as functional. The note with it: Chlorocebus sabaeus.
Assay [15] concerns the target Genome polyprotein (dengue virus type 2, UniProt P29990). Kind of assay: Dengue-2 NS5 methyltransferase inhibitors, primary screen, biochemical, confirmation dose response (AID 588689). The class given is functional.
Assay [16] concerns HEK293. As to the kind of experiment: NOD1 signaling inhibitors, primary screen, cell-based, luminescence, uHTS (AID 1578). As to conditions: Homo sapiens. The class given is functional.
Assay [17] has as its system HEK293. As to the kind of experiment: cells. The assay is classed as functional, cell-based. As to conditions: Homo sapiens.
Assay [18] deals with HEK293. As to the kind of experiment: cells. The class given is functional, cell-based. As to conditions: Homo sapiens. This is another data set of the same source.
Assay [19] concerns the target Nucleotide-binding oligomerization domain-containing protein 2 (Homo sapiens, UniProt Q9HC29). Kind of assay: NOD2 signaling inhibitors, cell-based, luminescence, uHTS, HEK293 (AID 1566). The class given is functional.
For assay [20], the system named is HEK293. Kind of assay: cells. The note with it: Homo sapiens. The assay is classed as functional, cell-based. The source holds these as a separate data set.
Assay [21] concerns HeLa. Kind of assay: HeLa cell cytotoxicity, dose response, cytotoxicity control, 24 h, cherry-picked samples (AID 504726).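 Also: potency for cytotoxicity as loss of luminescence signal.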 The class given is functional, cell-based. As to conditions: Homo sapiens.
Assay [22] addresses DNA dC->dU-editing enzyme APOBEC-3G (Homo sapiens, UniProt Q9HC16). As to the kind of experiment: Dose Response confirmation of small molecule APOBEC3G DNA Deaminase Inhibitors via a fluorescence-based single-stranded DNA deaminase assay. [Related pubchem assays (depositor defined):AID493012, AID493028]. The assay is classed as functional.

Each structure is given as a SMILES string. Active and inactive are the calls of the source.

One may read the CC50 as the concentration that lowers cell viability or growth by half. One may read the EC50 as the concentration that produces a half-maximal response. The IC50 is the concentration needed to halve the response being measured. By AC50 is commonly meant the midpoint of the concentration-response curve, whichever way the signal moves.

Sequence of NS3 (A3EZJ3 whole entry): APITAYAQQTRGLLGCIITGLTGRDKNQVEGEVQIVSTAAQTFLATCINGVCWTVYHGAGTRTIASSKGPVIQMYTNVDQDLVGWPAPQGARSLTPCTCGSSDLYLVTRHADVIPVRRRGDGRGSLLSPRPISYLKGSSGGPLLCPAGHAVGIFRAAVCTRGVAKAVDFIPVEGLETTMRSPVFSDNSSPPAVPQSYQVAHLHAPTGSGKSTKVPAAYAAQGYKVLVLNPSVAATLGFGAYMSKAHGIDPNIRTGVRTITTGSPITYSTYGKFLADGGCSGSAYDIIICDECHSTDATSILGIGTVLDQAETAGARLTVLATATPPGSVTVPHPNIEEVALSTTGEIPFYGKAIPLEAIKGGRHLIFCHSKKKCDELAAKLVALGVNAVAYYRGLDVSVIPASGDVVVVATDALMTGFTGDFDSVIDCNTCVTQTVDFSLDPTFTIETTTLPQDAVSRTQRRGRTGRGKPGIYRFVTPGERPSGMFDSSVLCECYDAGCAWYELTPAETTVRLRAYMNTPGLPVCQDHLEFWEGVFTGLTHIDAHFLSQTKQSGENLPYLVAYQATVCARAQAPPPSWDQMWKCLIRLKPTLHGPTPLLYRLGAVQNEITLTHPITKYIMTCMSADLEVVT
Sequence of Nonstructural protein 1 (Q194T2 whole entry): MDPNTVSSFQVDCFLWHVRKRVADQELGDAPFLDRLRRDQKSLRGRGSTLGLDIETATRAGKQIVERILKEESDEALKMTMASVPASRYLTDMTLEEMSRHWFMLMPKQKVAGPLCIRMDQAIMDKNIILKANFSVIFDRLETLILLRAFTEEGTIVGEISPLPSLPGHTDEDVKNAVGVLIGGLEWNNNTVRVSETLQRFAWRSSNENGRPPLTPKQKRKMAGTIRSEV
Sequence of DNA dC->dU-editing enzyme APOBEC-3G (Q9HC16 whole entry): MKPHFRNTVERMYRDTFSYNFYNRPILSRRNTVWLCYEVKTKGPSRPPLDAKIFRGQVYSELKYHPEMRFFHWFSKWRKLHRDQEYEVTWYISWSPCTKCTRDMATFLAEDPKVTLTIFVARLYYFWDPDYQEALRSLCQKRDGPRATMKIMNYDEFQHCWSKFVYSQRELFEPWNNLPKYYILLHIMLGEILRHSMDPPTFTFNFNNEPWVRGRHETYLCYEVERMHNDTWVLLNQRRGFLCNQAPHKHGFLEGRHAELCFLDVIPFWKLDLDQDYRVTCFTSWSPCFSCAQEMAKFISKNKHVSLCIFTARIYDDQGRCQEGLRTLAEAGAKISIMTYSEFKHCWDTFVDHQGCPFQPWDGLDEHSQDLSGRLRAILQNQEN
Sequence of Neurotensin receptor type 1 (P30989 whole entry): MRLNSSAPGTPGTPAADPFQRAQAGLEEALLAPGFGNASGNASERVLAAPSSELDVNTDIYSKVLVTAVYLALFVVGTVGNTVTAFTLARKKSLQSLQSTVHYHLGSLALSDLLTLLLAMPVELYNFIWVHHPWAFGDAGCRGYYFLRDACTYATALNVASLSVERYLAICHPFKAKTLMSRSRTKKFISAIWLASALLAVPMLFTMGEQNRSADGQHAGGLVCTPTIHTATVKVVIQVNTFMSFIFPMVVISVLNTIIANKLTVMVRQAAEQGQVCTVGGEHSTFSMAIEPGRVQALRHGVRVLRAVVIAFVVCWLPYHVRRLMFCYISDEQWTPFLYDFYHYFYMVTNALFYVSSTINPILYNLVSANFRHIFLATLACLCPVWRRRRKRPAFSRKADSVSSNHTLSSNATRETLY
Sequence of Luciferin 4-monooxygenase (P08659 whole entry): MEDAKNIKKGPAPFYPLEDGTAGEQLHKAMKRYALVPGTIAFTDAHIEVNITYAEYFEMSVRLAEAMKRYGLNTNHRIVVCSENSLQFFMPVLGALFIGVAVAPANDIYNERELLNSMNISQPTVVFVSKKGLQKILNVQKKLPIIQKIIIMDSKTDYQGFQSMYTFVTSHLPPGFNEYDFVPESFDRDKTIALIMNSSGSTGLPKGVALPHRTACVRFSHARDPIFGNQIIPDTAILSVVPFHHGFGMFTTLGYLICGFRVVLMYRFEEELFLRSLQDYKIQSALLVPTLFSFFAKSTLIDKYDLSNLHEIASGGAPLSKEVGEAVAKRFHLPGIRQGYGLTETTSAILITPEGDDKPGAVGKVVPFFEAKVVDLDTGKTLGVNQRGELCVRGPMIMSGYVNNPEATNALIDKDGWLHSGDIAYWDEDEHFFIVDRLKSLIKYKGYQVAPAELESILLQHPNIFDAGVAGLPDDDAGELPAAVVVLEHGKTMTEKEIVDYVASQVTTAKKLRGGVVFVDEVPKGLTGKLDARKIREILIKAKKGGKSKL
Sequence of Genome polyprotein (P29990 2492-3391 limits assumed): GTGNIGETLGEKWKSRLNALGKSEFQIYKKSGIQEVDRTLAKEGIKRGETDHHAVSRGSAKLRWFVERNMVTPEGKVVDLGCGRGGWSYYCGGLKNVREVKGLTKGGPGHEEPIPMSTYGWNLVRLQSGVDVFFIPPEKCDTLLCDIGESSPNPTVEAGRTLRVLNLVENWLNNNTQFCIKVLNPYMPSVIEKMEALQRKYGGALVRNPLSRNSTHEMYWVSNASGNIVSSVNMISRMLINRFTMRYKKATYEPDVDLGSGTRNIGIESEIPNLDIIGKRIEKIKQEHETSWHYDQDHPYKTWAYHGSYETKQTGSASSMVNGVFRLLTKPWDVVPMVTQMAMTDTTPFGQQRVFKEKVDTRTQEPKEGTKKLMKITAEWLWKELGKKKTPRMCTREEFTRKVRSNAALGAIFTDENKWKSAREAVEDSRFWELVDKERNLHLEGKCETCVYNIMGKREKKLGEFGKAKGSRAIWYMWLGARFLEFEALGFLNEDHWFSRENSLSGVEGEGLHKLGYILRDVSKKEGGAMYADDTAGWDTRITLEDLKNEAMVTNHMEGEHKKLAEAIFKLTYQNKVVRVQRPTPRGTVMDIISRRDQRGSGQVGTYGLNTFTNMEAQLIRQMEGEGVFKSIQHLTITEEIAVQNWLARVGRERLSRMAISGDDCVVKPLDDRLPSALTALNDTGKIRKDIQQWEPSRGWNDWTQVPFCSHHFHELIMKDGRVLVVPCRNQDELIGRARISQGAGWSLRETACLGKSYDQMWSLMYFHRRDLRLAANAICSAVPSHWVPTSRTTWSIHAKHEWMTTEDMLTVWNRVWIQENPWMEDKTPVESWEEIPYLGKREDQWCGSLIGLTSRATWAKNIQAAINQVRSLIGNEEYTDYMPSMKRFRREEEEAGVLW
Sequence of Cyclin-dependent kinase 5/CDK5 activator 1 (Q00535 whole entry): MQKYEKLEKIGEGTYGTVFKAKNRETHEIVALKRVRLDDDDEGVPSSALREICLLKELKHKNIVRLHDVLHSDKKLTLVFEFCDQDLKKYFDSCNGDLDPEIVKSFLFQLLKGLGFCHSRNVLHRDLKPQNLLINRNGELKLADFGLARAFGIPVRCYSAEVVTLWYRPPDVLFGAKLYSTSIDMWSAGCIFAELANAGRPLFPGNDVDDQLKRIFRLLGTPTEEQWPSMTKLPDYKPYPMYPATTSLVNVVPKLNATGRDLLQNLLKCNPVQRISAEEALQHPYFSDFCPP
Sequence of Cyclin-dependent kinase 5/CDK5 activator 1 (Q15078 whole entry, further chain): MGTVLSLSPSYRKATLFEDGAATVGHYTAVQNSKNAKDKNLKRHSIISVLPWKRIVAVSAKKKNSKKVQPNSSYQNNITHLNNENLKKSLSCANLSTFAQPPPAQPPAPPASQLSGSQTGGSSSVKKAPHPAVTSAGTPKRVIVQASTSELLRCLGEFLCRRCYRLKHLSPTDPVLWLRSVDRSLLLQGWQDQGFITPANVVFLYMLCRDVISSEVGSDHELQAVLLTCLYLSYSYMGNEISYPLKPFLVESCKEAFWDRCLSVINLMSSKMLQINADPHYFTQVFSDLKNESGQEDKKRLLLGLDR
Sequence of Nucleotide-binding oligomerization domain-containing protein 2 (Q9HC29 whole entry, the tested form may be a part): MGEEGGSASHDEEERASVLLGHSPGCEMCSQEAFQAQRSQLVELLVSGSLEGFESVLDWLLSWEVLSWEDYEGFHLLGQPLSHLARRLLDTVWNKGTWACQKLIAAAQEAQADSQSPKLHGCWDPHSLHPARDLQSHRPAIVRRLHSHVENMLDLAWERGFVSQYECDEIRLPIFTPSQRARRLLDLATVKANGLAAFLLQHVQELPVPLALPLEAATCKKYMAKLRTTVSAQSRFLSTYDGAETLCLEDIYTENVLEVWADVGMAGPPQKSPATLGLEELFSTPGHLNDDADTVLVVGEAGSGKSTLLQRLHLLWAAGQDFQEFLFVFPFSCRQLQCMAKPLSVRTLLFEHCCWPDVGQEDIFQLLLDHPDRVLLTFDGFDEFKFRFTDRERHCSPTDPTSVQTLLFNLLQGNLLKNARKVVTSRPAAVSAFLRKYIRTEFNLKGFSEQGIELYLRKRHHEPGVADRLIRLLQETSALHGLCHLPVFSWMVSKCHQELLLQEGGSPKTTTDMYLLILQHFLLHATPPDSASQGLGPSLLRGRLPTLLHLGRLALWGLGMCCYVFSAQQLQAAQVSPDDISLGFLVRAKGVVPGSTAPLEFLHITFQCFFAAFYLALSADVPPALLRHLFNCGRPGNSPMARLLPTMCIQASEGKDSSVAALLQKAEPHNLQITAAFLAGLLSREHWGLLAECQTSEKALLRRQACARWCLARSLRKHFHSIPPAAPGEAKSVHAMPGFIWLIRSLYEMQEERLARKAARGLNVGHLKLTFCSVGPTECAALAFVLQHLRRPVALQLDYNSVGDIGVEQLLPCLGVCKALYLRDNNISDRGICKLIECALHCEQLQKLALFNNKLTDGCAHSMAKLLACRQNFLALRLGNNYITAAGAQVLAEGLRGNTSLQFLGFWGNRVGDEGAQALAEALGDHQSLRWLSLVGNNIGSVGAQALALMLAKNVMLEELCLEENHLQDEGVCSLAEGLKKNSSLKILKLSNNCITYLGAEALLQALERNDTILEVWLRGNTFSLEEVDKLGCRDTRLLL

With `CC(C)N1CCc2c(sc(NC(=O)c3cc(-c4cccs4)nc4ccccc34)c2C(N)=O)C1`, the CC50 in assay [1] was 6.25 µM (active). For the same compound, in assay [2], the EC50 is > 40 µM (inactive). The IC50 in [3] is > 40 µM (not active); in assay [5] it was > 20 µM (inactive). The AC50 in assay [4] was 13.2 µM (active).

Turning to `COc1ccc(C(=O)ON=C(N)c2ccccc2)cc1`, the EC50 in assay [6] was 1.21 µM (active). Besides, the AC50 in [7] is 17.2 µM (active).

On to `COC(=O)/C(=C\Nc1ccc(Cl)cc1Cl)NC(=O)c1ccc(Cl)cc1Cl`, for which the CC50 in assay [1] was > 40 µM (active).

`CCCOc1ccc(-c2nc(SCc3ccccc3)[nH]c(=O)c2C#N)cc1OC`: the IC50 in assay [8] is 1.72 µM (active). The EC50 in [9] was 4.73 µM (active). Besides, the AC50 in assay [10] was > 20 µM (inactive).

With `CCOC(=O)c1cc(-c2ccc(/C=C3/C(=O)N(c4ccc(C(=O)O)cc4)N=C3C)o2)ccc1Cl`, in assay [11], the EC50 is 16 µM (active). For the same compound, the values for the IC50 in [12] and in assay [15] were 66.1 µM (active) and 21.2 µM (active), respectively. Besides, the results for the CC50 in assay [13] and in [14] were 24.9 µM (active) and > 25 µM (active), respectively.

As to `COc1ccccc1OCCCOc1cccc(/C=C2\SC(=O)NC2=O)c1`, the EC50 in assay [16] was 9.43 µM (active); in [19], 9.15 µM (active). Besides, the IC50 in assay [17] was 15.7 µM (active); in [18], > 20 µM (inactive); in [8] it was 3.82 µM (active); in [20] it was > 20 µM (inactive).

`CCn1c(S)nnc1-c1ccc([N+](=O)[O-])cc1`: in [21], the AC50 is 239 µM (active). The IC50 in [22] was 9.77 µM (active).
